# Results published in PMC9866218, “Characterization and Chemical Synthesis of Cm39 (α-KTx 4.8): A Scorpion Toxin That Inhibits Voltage-Gated K^+ Channel KV1.2 and Small- and Intermediate-Conductance Ca^2+-Activated K^+ Channels KCa2.2 and KCa3.1” (Toxins, 2023).
# “Also recorded” adds a separate entry of the source.
# Tests used:
# hNaV1.4 = test: Whole-cell patch-clamp, block of NaV1.4 current; assay type: cell-based, human; conditions: HEK 293 cells
# Source text: (§1) We, therefore, aimed at testing the pharmacological activity of sCm39 on a battery of various potassium and sodium ion channels. Among the tested channels were six members of human voltage-gated K^+ (hKV) channels from Shaker family, hKV1.1-hKV1.6 (Figure 3A–F) and three members of Ca^2+-activated potassium channel; hKCa2.2 (SK2, Figure 3I), the small-conductance Ca^2+-activated channel; hKCa3.1 (IKCa1, SK4. Figure 3J), the intermediate-conductance Ca^2+-activated channel expressed in T lymphocytes; and mKCa1.1 (BK, Slo1, MaxiK, Figure 3H), the large-conductance voltage- and Ca^2+-activated channel of mice. In addition, we also screened the effect of Cm39 on hKV11.1 (hERG1, Figure 3G), a voltage-gated cardiac K^+ channel, and two human voltage-gated sodium (hNaV) channels, hNaV1.4 (Figure 3K) and hNaV1.5 (Figure 3L), expressed in skeletal and cardiac muscles, respectively. These ion channels were heterologously expressed in the CHO or HEK cell lines except for KV1.3. Human peripheral T lymphocytes. […]
# (§2) Whole-cell currents were recorded in voltage-clamped cells following standard protocols by using a Multiclamp 700B amplifier connected to a computer with Axon Digidata1440 digitizer and for data acquisition, Clampex 10.7 software was used (Molecular Devices). […]
# hKV11.1 = test: Whole-cell patch-clamp, block of KV11.1 (hERG1) current; assay type: cell-based, human; conditions: HEK 293 cells
# Source text: as §1, §2
# hKV1.2 = molecular target: T1, hKV1.2 (Homo sapiens, UniProt P16389); test: Conductance-voltage (G-V) relationship of KV1.2; assay type: cell-based
# T1 construct: GFP (vector pCMV6-AC-GFP); host or cells: CHO cells, transient transfection
# Procedure: Mostly, scorpion toxins inhibit the KV channels by physically occluding the pore region of the channel thereby preventing the flow of K^+ ions. […] To confirm the blocking mechanism of Cm39 we determined the conductance–voltage (G–V) relationship for KV1.2 in the absence and presence of the toxin. Whole-cell currents of KV1.2 expressing CHO cells were recorded by applying the 300 ms long depolarization pulses ranging from −70 to +80 in 10 mV steps from Vh of −120 mV. […] The conductance values were calculated for each voltage step, normalized to the maximum conductance and plotted as a function of membrane potential (Em) as shown in Figure 4E. […] The midpoint voltage (V50) of the G–V relationship in the control solution (−1.0 ± 4.8, n = 4) was statistically similar to the V50 value at equilibrium block with 65 nM sCm39 (1.6 ± 4.0, n = 4) as shown in Figure 4F.
# Those plasmids which lack a fluorescent tag were co-transfected with a plasmid encoding GFP. Transfections were performed at a GFP:channel DNA molar ratio of 1:10 using the Lipofectamine 2000 kit (Invitrogen) according to the manufacturer’s protocol. GFP expressing cells were identified with the Nikon TE 2000U fluorescence microscope (Nikon, Tokyo, Japan) and used for current recordings (~60–70% success rate for co-transfection). Generally, currents were recorded 24 to 48 h post transfection.
# For the measurement of KV1.x, mKCa1.1 and NaV1.x currents the extracellular solution was composed of (in mM) 145 NaCl, 5 KCl, 2.5 CaCl2, 1 MgCl2, 10 HEPES and 5.5 glucose, pH 7.35. In the HK-150 and Na^+-free bath solution bath all Na^+ was substituted by K^+ or Choline-Cl, respectively, other ingredients remained unchanged. In the various TEA^+-containing solutions, Na^+ was substituted by tetraethylammonium-Cl in equimolar concentration (Figure 3). The bath solution for KCa2.2 and KCa3.1 consisted of (in mM) 145 L-Aspartic Na^+ salt, 5 KCl, 2.5 CaCl2, 1 MgCl2, 5.5 glucose and 10 HEPES, pH 7.4 and for KV11.1 (in mM) 140 Choline-Cl, 5 KCl, 2 MgCl2, 2 CaCl2, 10 HEPES, 20 glucose and 0.1 CdCl2, pH 7.35. The osmolarity of bath solutions was ranging between 302 to 308 mOsm/L. A total of 0.1 mg/mL bovine serum albumin (BSA, Sigma-Aldrich, Budapest, Hungary) was added to all the bath solutions before the patch-clamp assay to avoid toxin adsorption to the plastic surfaces of the perfusion system. Internal or pipette solution for recording KV1.x and mKCa1.1 currents consisted of (in mM) 140 KF, 2 MgCl2, 1 CaCl2, 11 EGTA and 10 HEPES, pH 7.22. […]
# as §2
# T1 sequence (P16389 whole entry): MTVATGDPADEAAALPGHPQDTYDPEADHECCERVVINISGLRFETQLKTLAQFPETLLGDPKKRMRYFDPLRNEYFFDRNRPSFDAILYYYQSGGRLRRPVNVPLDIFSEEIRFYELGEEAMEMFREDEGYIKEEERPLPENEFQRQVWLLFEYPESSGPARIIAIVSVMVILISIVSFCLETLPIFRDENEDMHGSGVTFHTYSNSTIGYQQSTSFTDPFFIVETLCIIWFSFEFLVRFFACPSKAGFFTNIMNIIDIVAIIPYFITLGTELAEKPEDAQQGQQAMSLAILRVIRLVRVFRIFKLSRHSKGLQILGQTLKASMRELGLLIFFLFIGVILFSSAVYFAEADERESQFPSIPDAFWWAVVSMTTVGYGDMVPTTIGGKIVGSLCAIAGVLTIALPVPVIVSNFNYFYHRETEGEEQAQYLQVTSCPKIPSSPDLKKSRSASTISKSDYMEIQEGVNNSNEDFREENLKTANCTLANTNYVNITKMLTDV
compound,measurement,setting,value
CC[C@H](C)[C@@H]1NC(=O)[C@H](C)NC(=O)[C@H](C)NC(=O)[C@H](CCCCN)NC(=O)[C@@H]2CSSC[C@@H](C(=O)N[C@@H](Cc3ccc(O)cc3)C(=O)N[C@@H](Cc3ccc(O)cc3)C(=O)O)NC(=O)[C@H](CCCCN)NC(=O)[C@@H]3CSSC[C@H](NC(=O)[C@H](CCC(=O)O)NC(=O)[C@H](CO)NC(=O)[C@H](CO)NC(=O)[C@H](CO)NC(=O)[C@H](CCCCN)NC(=O)[C@@H](NC(=O)[C@H](CCCCN)NC(=O)[C@H](Cc4c[nH]cn4)NC(=O)[C@H](CC(N)=O)NC(=O)[C@@H](NC(=O)[C@H](Cc4ccccc4)NC(=O)[C@@H](N)[C@@H](C)O)[C@@H](C)CC)CSSC[C@H](NC(=O)[C@H](CCCCN)NC(=O)CNC(=O)[C@H](CO)NC(=O)[C@H](C)NC(=O)[C@H](CCCNC(=N)N)NC(=O)CNC1=O)C(=O)N[C@@H]([C@@H](C)CC)C(=O)N[C@@H](CC(N)=O)C(=O)N[C@@H](CO)C(=O)N[C@@H]([C@@H](C)O)C(=O)N3)C(=O)N[C@@H](CC(C)C)C(=O)N1CCC[C@H]1C(=O)N[C@@H](C)C(=O)N2 [Cm39],inhibition (in words),hNaV1.4; 1 μM,does not inhibit; also recorded: did not show any effect
same,decrease in current,"hNaV1.4; 1 µM, 3−5 min, n = 3−5",< 3%
same,inhibition (in words),hKV11.1; 1 μM,does not inhibit; also recorded: did not show any effect
same,decrease in current,"hKV11.1; 1 µM, 3−5 min, n = 3−5",< 3%
same,effect on voltage dependence of steady-state activation (conductance–voltage relationship),"hKV1.2; 65 nM, CHO cells",not altered; also recorded: completely insensitive
same,effect on voltage dependence of steady-state activation (conductance–voltage relationship),"hKV1.2; 65 nM, CHO cells, listed as sCm9",did not affect the voltage dependence of steady-state activation
same,"Mann–Whitney p, V50 with vs without toxin","hKV1.2; 65 nM, ns = not significant",0.89
same,midpoint voltage V50 of the G–V relationship,"hKV1.2; equilibrium block with 65 nM sCm39, n = 4, control solution −1.0 ± 4.8, n = 4, CHO cells, ± SEM",1.6 ± 4.0
